{"source": "patent US7273712B2", "about": "“Methods and compositions for detecting compounds that modulate inflammatory responses” (Reddy US Therapeutics, Inc., priority 2000, dated 2007)", "key": {"[1]": {"tested_on": "MCP-1 secretion by endothelial cells (HAEC and HMVEC)", "assay": "AGE-induced inflammatory response determined by MCP-1 ELISA", "format": "cell-based, human", "conditions": "100 ng/ml TNFα or 300 μg/ml G-HSA, 24 hrs, vs control medium (FIG. 2)", "experimental": "HAEC and HMVEC (Clonetics) were cultured and subcultured according to manufacturer in growth medium (Clonetics): basal medium containing hEGF, hydrocortisone, VEGF, HFGF-B (with heparin), long R3-IGF-1, ascorbic acid, gentamicin/amphotericin and 5% FBS. These cells were allowed to reach >90% confluency before being subjected to experimental treatments.\nCells were treated with control medium or medium containing 100 ng/ml TNFα or 300 μg/ml G-HSA for 24 hrs. All treatments and controls were carried out in serum free media containing 0.2% albumin. Following treatment, media were collected and used for the MCP-1 ELISA.\nMCP-1 ELISA was carried out using a DuoSet ELISA Development System for Human MCP-1 as described by the manufacturer (R&D Systems). 2 ug/ml of mouse anti-human MCP-1 was used as the capture antibody and 100 ng/ml biotinylated goat anti-human MCP-1 was used as the detection antibody. The culture media were incubated with capture antibody for 2 h at room temperature in 96-well plates. The wells were washed three times with wash buffer (0.05% Tween-20 in phosphate buffered saline (PBS) pH 7.4) followed by incubation with detection antibody for 2 h at room temperature. Color development was read at 450 nm in a microplate reader."}, "[2]": {"tested_on": "IL-6 secretion by endothelial cells (HMVEC)", "assay": "AGE-induced inflammatory response determined by IL-6 ELISA", "format": "cell-based, human", "conditions": "24 hrs", "experimental": "These cell were allowed to reach >90% confluency before being subjected to experimental treatments. G-HSA was from US Biologicals. Tumor necrosis factor α (TNFα) was from R&D Systems.\nHMVEC were treated with control medium or medium containing 100 ng/ml TNFα or 300 μg/ml G-HSA for 24 hrs. All treatments and controls were carried out in serum free media containing 0.2% albumin. Following treatment, cell media were collected and used for an IL-6 ELISA.\nThe IL-6 ELISA was carried out using human IL-6 DuoSet ELISA development kit as described by manufacturer (R&D Systems). Mouse anti-human IL-6 was used as the capture antibody (2 μg/ml) and biotinylated goat anti-human IL6 (200 ng/ml) was used as the detection antibody. The culture media were incubated with capture antibody for 2 h at room temperature in 96-well plates. The wells were washed three times with wash buffer (0.05% Tween-20 in phosphate buffered saline (PBS) pH 7.4) followed by incubation with detection antibody for 2 h at room temperature. Following three washes, the wells were incubated with Streptavidin-HRP for 20 min. Color development was read at 450 nm in a microplate reader."}}}
{"substance": "Tumor necrosis factor α [TNFα]", "values": [{"measurement": "increase in MCP-1 secretion", "setting": "[1]", "result": 540, "unit": "%"}, {"measurement": "increase in IL-6 secretion", "setting": "[2]; 100 ng/ml TNFα or 300 μg/ml G-HSA, HMVEC, vs control medium (FIG. 1)", "result": 147, "unit": "%"}, {"measurement": "increase in IL-6 secretion by endothelial cells", "setting": "[2]; 100 ng/ml TNFα, serum free media containing 0.2% albumin, vs control medium", "result": "greater than 2 fold"}]}
